Key:
[1] = system: LC3 (LC3-II/LC3-I) in HeLa cells; experiment: Immunoblot analysis of LC3 in HeLa cells; type: cell-based, human; settings: 0.625-10 μM, 6 h
Method: (§1) FIG. 1 is a diagrammatic representation of an immunoblot analysis showing the dual inhibition of the autophagic process and mitotic progression by Compound 1 (a131). HeLa cells were treated with the indicated μM concentration of Compound 1 (a131) or chloroquine for 6 h. Cells were harvested and total lysates were analysed by detecting the mitotic marker phospho-histone H3 at serine 10 (pH3 (Ser10)) and the autophagosome marker LC3. The band intensity ratios of LC3-II/LC3-I as compared to DMSO control (lane 1, 0 μM chloroquine, and lane 7, 0 μM a131) are indicated (Ratio). Antibodies raised against β-actin were used as an internal loading control.
(§2) The ability of Compound 1 to inhibit lysosome function was examined using immunoblotting. HeLa cervical cancer cells were cultured in Dulbecco's modified Eagle's medium (DMEM) supplemented with 10% Fetal Bovine Serum (FBS, Thermo Scientific). […]
(§3) Defects in lysosome function and inhibition of autophagy can be measured by accumulation of LC3-phosphatidylethanolamine conjugated non-soluble form (LC3-II), which are converted from soluble LC3-I. Thus, antibodies raised against LC3 (Cell Signaling, Cat#4108) were used to determine lysosomal function and integrity. […] The inhibitory ability of Compound 1 was also quantitatively compared to CQ.

[2] = system: phospho-histone H3 (pH3) in HeLa cells; experiment: Immunoblot analysis of phospho-histone H3 in HeLa cells; type: cell-based, human; settings: 6 h
Method: as §1, §2, §3

[3] = system: caspase-3/7 activity in oncogene-transformed human fibroblast BJ cells; experiment: Caspase-3/7 Glo assay; type: cell-based; settings: 2.5 and 5 μM, 48 h
Method: FIGS. 5B, C provide a representation of an immunoblot analysis to examine the PARP or caspase-3 cleavage (B) and a histogram showing Caspase-3/7 activities, plotted as fold induction compared to DMSO-treated cells (C). BJ normal and transformed cells were treated with Compound 1 (a131) for 48 h. Cells were harvested and total lysates were analysed by detecting cleaved PARP or caspase-3 or caspase-3/7 activities as markers for apoptotic induction. […] Student's t-test was performed to determine the statistical significance (**=p<0.001, ***=p<0.0001, n.s.=no significance).
Whether Compound 1 (a131)-induced cancer cell-lethality was mediated by apoptosis or non-apoptotic programmed cell death was determined. For this purpose, isogenic non-transformed and oncogene-transformed human fibroblast BJ cell lines were cultured in DMEM supplemented with 10% FBS. The cells were treated with Compound 1 (2.5 μM and 5 μM, DMSO). 48 h after treatment, total cell lysates were prepared for immunoblot analysis using antibodies against cleaved PARP and cleaved caspase-3, well-known markers for apoptosis. In addition, a fraction of total cell lysates was also subjected to Caspase-3/7 Glo (Promega) assay to measure the combined activity of caspase 3/7. This was determined using caspase-Glo 3/7 Assay Kit (Promega) and its activity was normalized to a number of viable cells as determined by MTT assay.

[4] = system: isogenic non-transformed (normal) BJ cells; experiment: PI staining and FACS analysis, sub-G1 cell death; type: cell-based, human; settings: 48 h
Method: FIG. 5A is a histogram showing the ability of Compound 1 (a131) and its derivatives Compound 2 (a156), Compound 16 (b5), Compound 17 (b9), all in Group 1; Compound 29 (a219), Compound 13 (b12), Compound 11 (b15), Compound 12 (b16), Compound 25 (a166), all in Group 2; and Compound 3 (a159) from Group 3, to induce cancer selective cell death. Isogenic non-transformed (normal) and oncogene-transformed BJ cells were treated with each compound for 48 h and cells were stained with propidium iodide (PI) and subjected to FACS analysis. The percentage of cells in sub-G1 phase is indicative of the extent of cell death. […] In contrast, the ability of the compounds in Groups 2 and 3 to induce cancer selective cell death was markedly compromised (or reduced).
The Compounds 25 (a166) and 3 (a159) were selected from Group 2 and Group 3, respectively. Isogenic non-transformed normal and oncogene-transformed BJ cells were treated with or without 0.3 μM or 0.6 μM Compound 3 (a159) alone or together with 1.25 μM Compound 25 (a166) for 48 h. Cells were stained with propidium iodide (PI) and subjected to FACS analysis.
Isogenic non-transformed and oncogene-transformed human fibroblast BJ cell lines were cultured in DMEM supplemented with 10% FBS. The cells were treated with Compound 1 (2.5 μM, DMSO). 48 h after treatment, the cells were fixed with ethanol at −30° C. overnight and stained with 20 μg/mL propidium iodide (PI) and 10 μg/mL RNase A for 30 min. These cells were then subjected to flow cytometry (FACS) analysis using MACSQuant (Miltenyi Biotec) to count the percentage of apoptotic cells in sub-G1 peak.
The above procedure was repeated for Group 1 Compounds 2, 16 and 17, Group 2 Compounds 29, 13, 11, 12 and 25 at a concentration of 10 μM, and Group 3 Compound 3 at a concentration of 5 μM.
Isogenic non-transformed normal and oncogene-transformed BJ cells were cultured as in Biology Example 3. The cells were treated with a combination of Compound 3 (Group 3, at a concentration of 0.3 μM or 0.6 μM), and Compound 25 (Group 2, at a concentration of 1.25 μM) for 48 hours. Controls using DMSO, Compound 3 and Compound 25 alone (at the concentrations mentioned above) were also performed.

SMILES | levels of LC3-II [1] | inhibition of mitotic progression (levels of phospho-histone H3) [2] | caspase-3/7 activity [3] | cell death (population of cells in sub-G1) ([4]; normal BJ cells (FIG. 5A)) | cell death ([4]; Compound 3 0.3 or 0.6 μM, Compound 25 1.25 μM, alone or in combination)
N#C/C(=C\c1cccc2cnccc12)c1c[nH]c2ccccc12 [Compound 1, (Z)-2-(1H-indol-3-yl)-3-(isoquinolin-5-yl)acrylonitrile] | markedly increased the levels of LC3-II | potently inhibits mitotic progression | significant induction of caspase-3/7 activity | – | –
N#C/C(=C\c1cccc2ncccc12)c1c[nH]c2ccccc12 [Compound 3, (Z)-2-(1H-indol-3-yl)-3-(quinolin-5-yl)acrylonitrile] | – | – | – | significantly induced cell death | did not lead to a significant increase in cell death

— patent US10308631B2, “Selective anti-cancer compounds” (NATIONAL UNIVERSITY OF SINGAPORE, priority 2015, dated 2019)
